# Patent US20120225123A1, “Use of Synergistic Combinations of an Avermectin and an Antineoplastic Compounds for the Treatment of Hematological Malignancies” (UNIVERSITY HEALTH NETWORK, priority 2009, published 2012)
# Where two headings read alike, the source gives them in different places.
# What was measured:
# [1] = system: DU145 and PPC-1 cells; normal hematopoietic cells; assay: Reactive oxygen species, Carboxy-H2DCFDA staining, resistant cells; type: cell-based, human
# [2] = system: normal hematopoetic cells; assay: Clonogenic (methylcellulose colony forming) assay, normal cells; type: cell-based, human; details: ivermectin 6 μM, n=3
# Experimental: To assess clonogenic growth, primary AML cells or granulocyte colony-stimulating factor (G-CSF) mobilized PBSCs (4×10^5/mL) were treated with IVM or buffer control for 24 hours. After treatment, cells were washed and 10^5 cell/mL were plated in duplicate in MethoCult GF H4434 medium (StemCell Technologies, Vancouver, BC) containing 1% methycellulose in IMDM, 30% FCS, 1% bovine serum albumin, 3 U/mL of recombinant human erythropoietin, 10^−4 M of 2-mercaptoethanol, 2 mM of L-glutamine, 50 ng/mL of recombinant human stem cell factor, 10 ng/mL of GM-CSF, and 10 ng/mL of rh IL-3. Alternatively, primary cells were plated directly into MethoCult GF H4434 medium with ivermectin. Seven days (AML samples) or 14 days (normal PBCS) after plating, the number of colonies containing 10 or more cells for AML or over 100 cells for normal samples was counted as previously described.^14
# Ivermectin was also evaluated in clonogenic assays in primary normal hematopoietic and AML cells. Ivermectin (6 μM) had minimal effects on the clonogenic growth of normal hematopoetic cells (n=3) with <15% reduction in clonogenic growth. In contrast, ivermectin reduced clonogenic growth by ≧40% in 3/6 primary AML samples (FIG. 1D). Similar effects were noted when primary cells were directly plated into clonogenic assays with ivermectin (FIG. 1G).
# [3] = system: STAT1 expression in DU145 and PPC-1 cells; assay: Gene expression by Q-RT-PCR, DU145 and PPC-1; type: cell-based, human
# Experimental: Gene expression changes were evaluated in OCI AML2, 0937, HL60, DU145 and PPC-1 cells by real-time Q-RT-PCRas described previously^15, 47. The expression level of STAT1A, STAT1B, TRIM22, OAS1 and IFIT3 before and after incubation of leukemia cells with ivermectin was evaluated.
# OCI-AML2 cells [4] = assay: Cytosolic calcium, Indo-1 AM staining; type: cell-based, human
# Experimental: Changes in cytosolic calcium concentration were detected with the fluorescent dye, Indo-1 AM (final concentration 6 μM) as previously described. ^17
# Plasma membrane hyperpolarization can lead to calcium influx^23. Therefore, the effects of IVM on calcium influx in leukemia cells was tested. OCI-AML2 cells were treated with IVM and the concentration of intracellular calcium was measured by staining cells with the ratiometric dye, Indo-1 AM.
# [5] = system: DU145 and PPC-1 cells as well as primary normal hematopoietic cells; assay: Plasma membrane potential, DiBAC4(3) staining, resistant cells; type: cell-based, human; details: up to 6 μM for up to 24 hours
# Experimental: (§1) Plasma membrane potential was measured as previously described.^18 Briefly, cells treated with IVM or buffer control in RPM1, chloride replete medium (140 mM sodium chloride, 5 mM potassium chloride, 1 mM magnesium sulfate, 1.8 mM calcium acetate, 10 mM glucose, 10 mM HEPES and 0.1% (wt/v) BSA), or chloride free media where equimolar gluconate salts of sodium and potassium replaced the sodium chloride in the chloride replete medium. After incubation, cells were stained with DiBAC4(3) (final concentration 30 nM) and fluorescence determined by flow cytometry (BD FACS Canto, Becton Dickinson, San Jose, Calif.) (excitation=488 nm, emission=516 nm) Analysis was conducted using FACSDiva Software (BD Biosciences). Calibration curves were prepared using phosphate buffers with varying potassium ion concentrations as previously described.^18
# In nematodes, increases in intracellular chloride after IVM treatment cause membrane hyperpolarization. Therefore, the effects of IVM on plasma and mitochondrial membrane polarization was evaluated in leukemia cells. […] At increasing times after incubation, plasma membrane potential was measured by staining cells with DiBAC4(3) and flow cytometric analysis.
# [6] = system: DU145 prostate cancer cells; assay: Cell death by Annexin V and PI staining in DU145 cells; type: cell-based, human; details: 24 hours
# Experimental: (§2) Cell growth and viability was assessed by the MTS assay (Promega, Madison, Wis.) according to the manufacturer's instructions and as previously described.^12 Cell death was measured by Annexin V-fluoroscein isothiocyanate (FITC) and Propidium Iodide (PI; Biovision Research Products, Mountain View, Calif.) staining and flow cytometry according to the manufacturer's instructions and as previously described.^13 To identify CD34+ cells, a normal PBSC sample was co-stained with PE-anti-CD34+ (Beckman Coulter, Marseille France), and APC-anti-CD45 (Becton Dickenson, San Jose Calif.).
# OCI-AML2 cells [7] = assay: Cell death, viability and cell cycle in OCI-AML2 cells; type: cell-based, human
# Experimental: as §2
# Cell cycle analysis was performed as described previously.^15 Briefly, cells were harvested, washed with cold PBS, and resuspended in 80% cold ethanol. Cells were then treated with 100 ng/mL DNase-free RNase A (Invitrogen) at 37° C. for 30 min, washed with cold PBS, and resuspended in PBS with 50 μg/mL propidium iodide. DNA content was analyzed by flow cytometry (FACSCalibur; Becton Dickinson). The percentage of cells in each phase of the cell cycle was calculated with FlowJo version 8.8 (TreeStar, Ashland, Oreg.).
# monkeys = details: oral; cited from earlier work
# [8] = cited from earlier work
# DU145 cells = assay: Intracellular chloride (SPQ) and cell size (forward light scatter), DU145; type: cell-based, human; details: 10 μM IVM, 2 hours
# Experimental: Intracellular chloride concentration was measured using a fluorescent indicator for chloride, SPQ as previously described.^16 Upon binding halide ions like chloride, SPQ is quenched resulting in a decrease in fluorescence without a shift in wavelength. […] After 15 minutes of incubation with SPQ, cells were diluted 15:1 in HBSS and centrifuged. The supernatant was removed, cells were resuspended in 200 μl of fresh HBSS and incubated for 15 minutes in 37° C. to allow recovery from the hypotonic shock. Cells were then stained with propidium iodide and SPQ fluorescence in the PI negative cells was determined using an LSR-II flow cytometer (Beckton Dickonson, San Jose, Calif.) (excitation 351 nm, emission 485 nm). In parallel, changes in cell size were determined by measuring forward light scatter by flow cytometry. Results were analyzed with FlowJo version 8.8 (TreeStar, Ashland, Oreg.).
# OCI-AML2 cells [9] = assay: Plasma membrane potential, DiBAC4(3) staining, OCI-AML2; type: cell-based, human; details: for plasma membrane polarization: 5 hours
# Experimental: as §1
substance,measurement,setting,value
ivermectin,ROS generation,[1]; DU145 and PPC-1 cells,did not show changes in ROS generation
same,ROS generation,[1]; normal hematopoietic cells,not normal hematopoietic cells
same,reduction in clonogenic growth,[2],< 15%
same,STAT1 expression,[3],did not show changes in STAT1 expression
same,intracellular calcium,OCI-AML2 cells [4],increased intracellular calcium
same,plasma membrane potential,[5],did not show changes in their plasma membrane potential
same,sensitivity to IVM induced cell death,[6],more resistant to IVM induced cell death
same,cell death,OCI-AML2 cells [7]; 24 hours of treatment,induced cell death
same,cell cycle,"OCI-AML2 cells [7]; times and concentrations that preceded cell death, PI DNA content",induced G2 cell cycle arrest
same,LD50,monkeys,above 24 mg/kg
same,adverse effects,"[8]; healthy volunteers, oral, dose of 120 (~2 mg/kg)",no serious adverse effects were noted
same,adverse effects,"[8]; patients with spinal injury, up to 1.6 mg/kg subcutaneously twice weekly for up to 12 weeks",no significant adverse effects were reported
same,chloride influx,DU145 cells,chloride influx was not observed
same,plasma membrane polarization,OCI-AML2 cells [9]; chloride deplete buffer,caused plasma membrane depolarization
same,plasma membrane polarization,OCI-AML2 cells [9]; chloride replete buffer,induced plasma membrane hyperpolarization
same,plasma membrane potential,"OCI-AML2 cells [9]; RPMI medium, as early as after 1 hour of treatment",induced membrane hyperpolarization in a dose dependent manner
